Tests used:
RLK/TXK = RLK/TXK (Homo sapiens (Human), UniProt P42681); assay: RLK/TXK kinase inhibition assay; format: biochemical; conditions: micro-fluidic detection, 3 hours at 25° C.
Procedure: (§1) The in vitro kinase assays were performed at Nanosyn utilizing micro-fluidic detection technology. The test compounds were serially pre-diluted in DMSO and added, by the acoustic dispensing (Labcyte® 550), directly to 384well assay plates into 10 uL of a buffer with enzyme comprising: 100 mM HEPES, pH7.5, 5 mM MgCl2, 0.1% bovine serum albumin, 1 mM DTT, 0.01% Triton X-100 and the enzyme. Final DMSO concentration was maintained at 1% in all samples, including the controls. The reactions were initiated by addition of ATP (to the specified concentration) and the fluorescently labeled peptide substrate to a final concentration of 1 uM, and incubated for 3 hours at 25° C. Following incubation, the reactions were quenched by addition of 40 μL of termination buffer (100 mM HEPES, pH7.5, 0.01% Triton X-100, 50 mM EDTA). Terminated plates were analyzed using Caliper LabChip® 3000 microfluidic electrophoresis instrument (Caliper Life Sciences/Perkin Elmer). The enzymatic modification of the peptide substrate (phosphorylation) results in a change of net charge enabling electrophoretic separation of product from substrate. As substrate and product are separated by electrophoresis, two peaks of fluorescence are observed. Change in the relative fluorescence intensity of the substrate and product peaks was the parameter measured, reflecting enzyme activity. In the presence of inhibitor, the ratio between product and substrate is altered: signal of the product decreases, while the signal of the substrate increases. Activity in each test sample was determined as the product to sum ratio (PSR): P/(S+P), where P is the peak height of the product and S is the peak height of the […]. For each compound, enzyme activity was measured at 12 concentrations spaced by 3× dilution intervals. Negative control samples (0%-inhibition in the absence of inhibitor, DMSO only) and positive control samples (100%-inhibition, in the absence of enzyme or in the presence of control inhibitor) were assembled in replicates of four and were used to calculate %-inhibition values in the presence of compounds. Percent inhibition (Pinh) was determined using the following equation: Pinh=(PSR0%−PSRinh)/(PSR0%−PSR100%)*100, where PSRinh is the product sum ratio in the presence of inhibitor, PSR0% is the product sum ratio in the absence of inhibitor and PSR100% is the product sum ratio in 100%-inhibition control samples. To determine IC50 values, the inhibition curves (Pinh versus inhibitor concentration) were fitted by 4 parameter sigmoid dose-response model using XLfit software (IDBS).

ITK = ITK (Homo sapiens (Human), UniProt Q08881); assay: ITK kinase inhibition assay; format: biochemical; conditions: micro-fluidic detection, 3 hours at 25° C.
Chain of ITK (Q08881 whole entry): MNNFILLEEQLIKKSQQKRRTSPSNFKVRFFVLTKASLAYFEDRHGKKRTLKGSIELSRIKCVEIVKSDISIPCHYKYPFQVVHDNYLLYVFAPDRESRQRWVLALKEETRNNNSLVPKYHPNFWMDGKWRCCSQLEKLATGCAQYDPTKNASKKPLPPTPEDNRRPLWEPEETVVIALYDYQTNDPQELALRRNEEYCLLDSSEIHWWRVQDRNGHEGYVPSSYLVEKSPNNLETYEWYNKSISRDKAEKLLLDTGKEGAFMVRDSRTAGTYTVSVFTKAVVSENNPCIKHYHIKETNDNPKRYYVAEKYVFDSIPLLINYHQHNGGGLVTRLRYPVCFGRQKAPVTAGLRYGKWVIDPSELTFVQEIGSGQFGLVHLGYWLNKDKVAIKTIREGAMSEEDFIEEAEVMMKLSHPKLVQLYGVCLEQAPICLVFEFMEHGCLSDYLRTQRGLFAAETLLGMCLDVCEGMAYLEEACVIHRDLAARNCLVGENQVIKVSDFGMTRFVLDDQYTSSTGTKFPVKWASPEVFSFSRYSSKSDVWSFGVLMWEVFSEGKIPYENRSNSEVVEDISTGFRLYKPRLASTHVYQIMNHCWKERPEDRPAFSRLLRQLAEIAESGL
Procedure: as §1, with “384 well” for “384well”, “(PSR):P/(S+P),” for “(PSR): P/(S+P),”

[1] = system: Jurkat human acute T cell leukemia cells; assay: Jurkat IL-2 release assay; format: cell-based; conditions: IL-2 release from Jurkat cells stimulated with anti-CD3 and anti-CD28, 48 hours, ELISA
Procedure: Inhibition of cellular ITK was assessed by measuring release of IL-2 following stimulation with anti-CD3 and anti-CD28 antibodies. Individual wells of 96 well tissue culture plates were coated with 50 μL of 10 μg/mL anti-CD3 (OKT3, eBiosciences) for 2 hours at 37° C. Jurkat human acute T cell leukemia cells (ATCC) were plated in 96-well plates at a final concentration of 9.2×10e5 cells/mL in complete media (RPMI, 10% FBS, 1.5 g/L sodium bicarbonate, 10 mM Hepes, 1 mM sodium pyruvate, 4.5 g/L glucose) and pre-treated with compound curves for 30 minutes at 37° C., 5% CO2. Pre-treated cells plus compounds were transferred to washed anti-CD3 coated plates. Soluble anti-CD28 (CD28.2 eBiosciences) was added to each well at a final concentration of 1 μg/mL. The cells were placed in a humidified 37° C. incubator with 5% CO2 for 48 hours and IL-2 release was measured using a commercial ELISA (BD Bioscience catalog #555190). Controls included unstimulated cells and vehicle alone. EC50 values (50% IL-2 release in the presence of compound as compared to vehicle treated controls) were calculated from dose response compound curves using GraphPad Prism Software.

Human PBMCs = assay: CD3/CD28 mediated PBMC proliferation assay; format: cell-based; conditions: proliferation of human PBMCs stimulated with anti-CD3 and anti-CD28, 72 hours, Cell Titer-Glo
Procedure: Inhibition of cellular ITK was assessed by measuring proliferation of PBMCs following stimulation with anti-CD3 and anti-CD28 antibodies. Individual wells of 96 well tissue culture plates were coated with 50 μL of 5 μg/mL anti-CD3 (OKT3, eBiosciences) for 2 hours at 37° C. Human PBMCs (Stemcell Technologies catalog #70025.3) were plated in 96-well plates at a final concentration of 9.2×10e5 cells/mL in complete media (RPMI, 10% heat inactivated FBS, 55 uM β-mercaptoethanol) and pre-treated with compound curves for 30 minutes at 37° C., 5% CO2. Pre-treated cells plus compounds were transferred to washed anti-CD3 coated plates. Soluble anti-CD28 (CD28.2 eBiosciences) was added to each well at a final concentration of 2 μg/mL. The cells were placed in a humidified 37° C. incubator with 5% CO2 for 72 hours and metabolic viability was measured by quantification of ATP levels with Cell Titer-Glo (Promega catalog # G9242). Controls included unstimulated cells and vehicle alone. EC50 values (50% proliferation in the presence of compound as compared to vehicle treated controls) were calculated from dose response compound curves using GraphPad Prism Software.

Chain of RLK/TXK (P42681 whole entry): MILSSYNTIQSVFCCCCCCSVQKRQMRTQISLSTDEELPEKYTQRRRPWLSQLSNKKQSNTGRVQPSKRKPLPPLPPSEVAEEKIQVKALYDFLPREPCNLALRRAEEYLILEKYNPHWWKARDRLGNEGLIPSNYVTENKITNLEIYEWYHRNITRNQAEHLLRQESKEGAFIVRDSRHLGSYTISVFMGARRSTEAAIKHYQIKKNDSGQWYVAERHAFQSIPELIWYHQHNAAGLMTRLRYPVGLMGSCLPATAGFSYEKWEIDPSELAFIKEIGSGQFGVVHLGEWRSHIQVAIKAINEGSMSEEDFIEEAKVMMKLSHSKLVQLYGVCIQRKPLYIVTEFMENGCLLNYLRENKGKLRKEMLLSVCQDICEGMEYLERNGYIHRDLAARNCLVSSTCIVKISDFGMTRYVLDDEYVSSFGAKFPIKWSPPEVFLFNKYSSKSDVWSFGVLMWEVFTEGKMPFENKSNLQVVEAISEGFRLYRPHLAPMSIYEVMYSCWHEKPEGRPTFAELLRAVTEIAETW

SMILES | EC50 (RLK/TXK) [µM] | EC50 (ITK) [µM] | EC50 [1] [µM] | EC50 (Human PBMCs) [µM]
C=CC(=O)Nc1cccc(-n2c(NC(=O)c3ccns3)nc3cc(CN[C@@H](C)C(C)(C)C)ccc32)c1 [Compound 43] | < 0.01 | < 0.01 | < 0.01 | < 0.01
C=CC(=O)Nc1cccc(-n2c(NC(=O)c3cnco3)nc3cc(CN[C@@H](C)C(C)(C)C)ccc32)c1 [Compound 42] | 0.01 to 0.1 | 0.01 to 0.1 | < 0.01 | 0.01 to 0.1
C=CC(=O)Nc1cccc(-n2c(NC(=O)c3ccc(C(F)F)s3)nc3cc(CN[C@H]4CC[C@H](O)CC4)ccc32)c1 [Compound 31] | < 0.01 | < 0.01 | < 0.01 | < 0.01
C=CC(=O)Nc1cccc(-n2c(NC(=O)c3cccnc3)nc3cc(CN[C@@H](C)C(C)(C)C)ccc32)c1 [Compound 19] | 0.01 to 0.1 | < 0.01 | < 0.01 | 0.01 to 0.1
C=CC(=O)Nc1cccc(-n2c(NC(=O)c3ccncc3)nc3cc(CN[C@@H](C)C(C)(C)C)ccc32)c1 [Compound 16] | < 0.01 | < 0.01 | 0.01 to 0.1 | 0.01 to 0.1
C=CC(=O)Nc1cccc(-n2c(NC(=O)c3nccs3)nc3cc(CN[C@@H](C)C(C)(C)C)ccc32)c1 [Compound 12] | 0.01 to 0.1 | > 0.1 | > 0.1 | > 0.1
C=CC(=O)N[C@H]1C[C@@H](n2c(NC(=O)c3ccc(C(F)F)s3)nc3cc(CN[C@@H](C)C(C)(C)C)ccc32)C1 [Compound 1] | 0.01 to 0.1 | < 0.01 | 0.01 to 0.1 | 0.01 to 0.1
C=CC(=O)Nc1cccc(-n2c(NC(=O)c3ccccn3)nc3cc(CN[C@@H](C)C(C)(C)C)ccc32)c1 [Compound 27] | > 0.1 | > 0.1 | > 0.1 | > 0.1
C=CC(=O)Nc1cccc(-n2c(NC(=O)c3ccc(C(F)F)s3)nc3cc(CN4CCOCC4)ccc32)c1 [Compound 50] | < 0.01 | < 0.01 | < 0.01 | < 0.01

— patent publication US10562893B2, “Benzimidazoles derivatives as Tec kinases family inhibitors” (GB005, Inc., priority 2015, dated 2020)
